Source: patent US20100216767A1, “QUINAZOLINES FOR PDK1 INHIBITION” (priority 2006, published 2010)

Target: T1, PDK1 kinase (Homo sapiens, UniProt O15530)
T1 sequence (O15530 1-556): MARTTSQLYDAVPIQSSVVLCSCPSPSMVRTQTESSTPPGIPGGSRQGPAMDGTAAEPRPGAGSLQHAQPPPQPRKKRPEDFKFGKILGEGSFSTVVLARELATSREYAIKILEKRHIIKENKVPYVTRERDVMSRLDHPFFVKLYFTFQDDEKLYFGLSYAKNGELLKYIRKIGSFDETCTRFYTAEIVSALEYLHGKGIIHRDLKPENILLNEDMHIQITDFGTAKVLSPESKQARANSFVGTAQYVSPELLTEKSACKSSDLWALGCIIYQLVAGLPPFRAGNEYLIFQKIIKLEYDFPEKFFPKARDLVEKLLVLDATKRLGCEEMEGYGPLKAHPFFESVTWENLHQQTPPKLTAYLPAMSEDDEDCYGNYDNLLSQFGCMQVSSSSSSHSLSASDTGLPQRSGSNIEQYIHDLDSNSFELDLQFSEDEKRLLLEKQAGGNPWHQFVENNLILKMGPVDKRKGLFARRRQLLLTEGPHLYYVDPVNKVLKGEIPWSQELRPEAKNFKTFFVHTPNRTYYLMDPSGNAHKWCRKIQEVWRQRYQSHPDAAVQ
Assay: PDK1 Kinase Alpha Screen Assay
Format: biochemical
Conditions: Table 1; 10 μM ATP, 50 nM PDK1-4 peptide
Method: Reagents/Concentrations: The PDK1-4 peptide substrate, biotin-[…]-NH2, (SEQ ID NO: 1), was purchased from the Tufts University Core Facility. The final concentration of PDK1-4 peptide substrate was 50 nM. The ATP substrate (adenosine-[…] triphosphate) was purchased from Roche Diagnostics. The final concentration of ATP substrate was 10 μM. Phospho-(Ser/Thr) PKA substrate antibody was purchased from Cell Signaling Technology. The final concentration of antibody was 0.3 mg/mL. The Alpha Screen Protein A detection kit containing donor and acceptor beads was purchased from PerkinElmer Life Sciences. The final concentration of both donor and acceptor beads was 25 μg/mL. Alpha Screen was used for detection. The biotinylated-PDK1-4 peptide was phosphorylated by PDK1 kinase using the ATP substrate. The biotinylated-PDK1-4 peptide substrate was bound to the streptavidin coated donor bead. The antibody was bound to the protein A coated acceptor bead. The antibody bound to the phosphorylated form of the biotinylated PDK-1 peptide substrate, bringing the donor and acceptor beads into close proximity. Laser irradiation of the donor bead at 680 nm generated a flow of short-lived singlet oxygen molecules. When the donor and acceptor beads were in close proximity, the reactive oxygen generated by the irradiation of the donor beads initiated a luminescence/fluorescence cascade in the acceptor beads. This process led to a highly amplified signal with output in the 530-620 nm range. Assays were carried out in 50 mM Tris, pH=7.5, 10 mM MgCl2, 0.1% BSA, 0.01% Tween-20, 2 mM dithiolthreitol, 2.5% dimethyl sulfoxide. Reactions were stopped by adding 50 mM Tris, pH=7.5, 90 mM EDTA, 0.1% BSA, 0.01% Tween-20.
Procedure: To 10 μl, of PDK1-4 peptide, […] of test compound in dimethyl sulfoxide was added. PDK1 kinase and ATP were mixed, and 10 μL of the PDK1 kinase/ATP mix was added to start the reaction. The reaction was allowed to proceed for 3-18 hours. The reactions were then stopped by adding 10 μL of the EDTA-containing stop buffer. Beads were mixed with antibody, and 25 μL of the bead/antibody mix was then added to the stopped reactions. Plates were incubated at room temperature overnight to allow for detection development before being read. The assay was run in a 384-well format plate.

SMILES | IC50
C#Cc1ccc2nc(Nc3cc(CN4CCOCC4)cc(NC(=O)C(C)C)c3)ncc2c1 [Example 142, N-(3-(6-ethynylquinazolin-2-ylamino)-5-(morpholino-methyl)phenyl)-isobutyramide] | < 5 µM
C#Cc1ccc2nc(Nc3ccc(C(=O)NC(C)C)cc3)ncc2c1 [Example 72, 4-(6-ethynylquinazolin-2-ylamino)-N-isopropyl-benzamide] | < 5 µM
COc1cc2cnc(Nc3cc(CN4CCOCC4)cc(NC(C)=O)c3)nc2cc1OC [Example 174, N-(3-(6,7-dimethoxy-quinazolin-2-ylamino)-5-(morpholinomethyl)-phenyl)acetamide] | < 5 µM
COc1cc(Br)c(Cl)c2cnc(Nc3ccc(C(=O)N4CCOCC4)cc3)nc12 [Example 118, (4-(6-bromo-5-chloro-8-methoxyquinazolin-2-ylamino)phenyl)-(morpholino)-methanone] | < 5 µM
N#Cc1ccc2nc(Nc3ccc(C(N)=O)cc3)ncc2c1 [Example 78, 4-(6-cyanoquinazolin-2-ylamino)benzamide] | < 5 µM
CC(=O)Nc1cc(CN2CCOCC2)cc(Nc2ncc3cc(Br)ccc3n2)c1 [Example 145, N-(3-(6-bromoquinazolin-2-ylamino)-5-(morpholino-methyl)phenyl)acetamide] | < 5 µM
COc1cc2nc(Nc3ccc(S(=O)(=O)N4CCOCC4)cc3)ncc2cc1Br [Example 48, 6-bromo-7-methoxy-N-(4-(morpholinosulfonyl)phenyl)-quinazolin-2-amine] | < 5 µM
COc1cc2nc(Nc3cc(CN(C)C)cc(NC(C)=O)c3)ncc2cc1-c1nccs1 [Example 122, N-(3-((dimethylamino)-methyl)-5-(7-methoxy-6-(thiazol-2-yl)quinazolin-2-ylamino)phenyl)acetamide] | < 5 µM
COc1cc(-c2cncnc2)cc2cnc(Nc3cc(CN(C)C)cc(NC(C)=O)c3)nc12 [Example 95, N-(3-((dimethylamino)-methyl)-5-(8-methoxy-6-(pyrimidin-5-yl)-quinazolin-2-ylamino)-phenyl)acetamide] | < 5 µM
C#Cc1cc(F)c2nc(Nc3cc(CN(C)C)cc(NC(C)=O)c3)ncc2c1 [Example 139, N-(3-((Dimethylamino)methyl)-5-(6-ethynyl-8-fluoroquinazolin-2-ylamino)-phenyl)acetamide] | < 5 µM
COc1cc2cnc(Nc3ccc(S(N)(=O)=O)cc3)nc2cc1OC [Example 35, 4-(6,7-Dimethoxyquinazolin-2-ylamino)benzenesulfonamide] | < 5 µM
C#Cc1cc(OC)c2nc(Nc3ccc(S(N)(=O)=O)cc3)ncc2c1 [Example 2, 4-(6-Ethynyl-8-methoxyquinazolin-2-ylamino)benzenesulfonamide] | < 5 µM
C#Cc1cc(OC)c2nc(Nc3ccc(C(=O)NC(C)C)cc3)ncc2c1Cl [Example 114, 4-(5-chloro-6-ethynyl-8-methoxyquinazolin-2-ylamino)-N-isopropyl-benzamide] | < 5 µM
COc1cc(C#N)cc2cnc(Nc3ccc(S(N)(=O)=O)cc3)nc12 [Example 4, 4-(6-cyano-8-methoxyquinazolin-2-ylamino)benzene-sulfonamide] | < 5 µM
N#Cc1cc(CN2CCOCC2)cc(Nc2ncc3cc(Br)ccc3n2)c1 [Example 151, 3-(6-bromoquinazolin-2-ylamino)-5-(morpholino-methyl)benzonitrile] | < 5 µM
NC(=O)c1ccc(Nc2ncc3cc(-c4nccs4)ccc3n2)cc1 [Example 75, 4-(6-(thiazol-2-yl)-quinazolin-2-ylamino)-benzamide] | < 5 µM
C#Cc1ccc2nc(Nc3cc(CN4CCOCC4)cc(NC(C)=O)c3)ncc2c1F [Example 161, N-(3-(6-ethynyl-5-fluoro-quinazolin-2-ylamino)-5-(morpholinomethyl)-phenyl)-acetamide] | < 5 µM
COc1cc(-c2nccs2)c(-c2nccs2)c2cnc(Nc3ccc(C(=O)N4CCOCC4)cc3)nc12 [Example 170, (4-(8-methoxy-5,6-di(thiazol-2-yl)quinazolin-2-ylamino)phenyl)-(morpholino)methanone] | 5 to 10 µM

SMILES | IC50
C#Cc1ccc2nc(Nc3cccc(NS(C)(=O)=O)c3)ncc2c1 [Example 61, N-(3-(6-ethynylquinazolin-2-ylamino)phenyl)-methane-sulfonamide] | < 5 µM
COc1cc2nc(Nc3ccc(C(=O)N4CCOCC4)c(Cl)c3)ncc2cc1-c1nccs1 [Example 104] | < 5 µM
CC(=O)Nc1ccc2nc(Nc3ccc(S(N)(=O)=O)cc3)ncc2c1 [Example 68, N-(2-(4-Sulfamoylphenylamino)quinazolin-6-yl)acetamide] | < 5 µM
C#Cc1cc2cnc(Nc3cc(CN(C)C)cc(NC(C)=O)c3)nc2cc1OC [Example 85, N-(3-((dimethylamino)methyl)-5-(6-ethynyl-7-methoxy-quinazolin-2-ylamino)-phenyl)acetamide] | < 5 µM
C#Cc1ccc2nc(Nc3ccc(N4CCOCC4)c(CN(C)C)c3)ncc2c1 [Example 82, N-(3-((dimethylamino)-methyl)-4-morpholino-phenyl)-6-ethynyl-quinazolin-2-amine] | < 5 µM
COc1ccc2nc(Nc3cc(CN(C)C)cc(NC(C)=O)c3)ncc2c1 [Example 109, N-(3-((dimethylamino)-methyl)-5-(6-methoxy-quinazolin-2-ylamino)-phenyl)acetamide] | < 5 µM
C#Cc1ccc2nc(Nc3ccc(C(=O)N4CCOCC4)cc3)ncc2c1 [Example 81, (4-(6-ethynylquinazolin-2-ylamino)phenyl)-(morpholino)methanone] | < 5 µM
COc1cc(-c2nccs2)cc2cnc(Nc3cc(CN(C)C)cc(NC(C)=O)c3)nc12 [Example 87, N-(3-((dimethylamino)-methyl)-5-(8-methoxy-6-(thiazol-2-yl)quinazolin-2-ylamino)phenyl)acetamide] | < 5 µM
C#Cc1ccc2nc(Nc3cc(CN4CCCC4)cc(NC(C)=O)c3)ncc2c1 [Example 127, N-(3-(6-ethynylquinazolin-2-ylamino)-5-(pyrrolidin-1-ylmethyl)phenyl)-acetamide] | < 5 µM
CC(=O)Nc1cc(CN(C)C)cc(Nc2ncc3cc(-c4cncnc4)ccc3n2)c1 [Example 92, N-(3-((dimethylamino)-methyl)-5-(6-(pyrimidin-5-yl)quinazolin-2-ylamino)-phenyl)acetamide] | < 5 µM
COc1cc(-c2nccs2)c(Cl)c2cnc(Nc3ccc(C(=O)N4CCOCC4)cc3)nc12 [Example 117, (4-(5-chloro-8-methoxy-6-(thiazol-2-yl)quinazolin-2-ylamino)phenyl)-(morpholino)-methanone] | < 5 µM
C#Cc1ccc2nc(Nc3cccc(N4CCOCC4)c3)ncc2c1 [Example 51, 6-ethynyl-N-(3-morpholinophenyl)-quinazolin-2-amine] | < 5 µM
NS(=O)(=O)c1ccc(Nc2ncc3cc(-c4cc[nH]n4)ccc3n2)cc1 [Example 67, 4-(6-(1H-pyrazol-3-yl)-quinazolin-2-ylamino)-benzenesulfonamide] | < 5 µM
CC(=O)Nc1cc(CN(C)C)cc(Nc2ncc3cc(-c4nccs4)ccc3n2)c1 [Example 84, N-(3-((dimethylamino)-methyl)-5-(6-(thiazol-2-yl)quinazolin-2-ylamino)-phenyl)acetamide] | < 5 µM
Fc1c(Br)ccc2nc(Nc3ccc(N4CCOCC4)cc3)ncc12 [Example 23, 6-Bromo-5-fluoro-N-(4-morpholinophenyl)quinazolin-2-amine] | < 5 µM
CC(=O)Nc1cc(CN2CCOCC2)cc(Nc2ncc3cc(Br)cc(Cl)c3n2)c1 [Example 128, N-(3-(6-bromo-8-chloro-quinazolin-2-ylamino)-5-(morpholinomethyl)-phenyl)-acetamide] | < 5 µM
CC(=O)Nc1cc(CN2CCOCC2)cc(Nc2ncc3cc(-c4nccs4)ccc3n2)c1 [Example 133, N-(3-(morpholinomethyl)-5-(6-(thiazol-2-yl)-quinazolin-2-ylamino)-phenyl)acetamide] | < 5 µM
